Key:
COX-1 = target: T1, COX-1 (Ovis aries, UniProt P05979); experiment: COX (ovine) inhibitor screening assay kit; […] inhibition at […]; format: biochemical
T1 construct: gene PTGS1
T1 sequence (P05979 25-600): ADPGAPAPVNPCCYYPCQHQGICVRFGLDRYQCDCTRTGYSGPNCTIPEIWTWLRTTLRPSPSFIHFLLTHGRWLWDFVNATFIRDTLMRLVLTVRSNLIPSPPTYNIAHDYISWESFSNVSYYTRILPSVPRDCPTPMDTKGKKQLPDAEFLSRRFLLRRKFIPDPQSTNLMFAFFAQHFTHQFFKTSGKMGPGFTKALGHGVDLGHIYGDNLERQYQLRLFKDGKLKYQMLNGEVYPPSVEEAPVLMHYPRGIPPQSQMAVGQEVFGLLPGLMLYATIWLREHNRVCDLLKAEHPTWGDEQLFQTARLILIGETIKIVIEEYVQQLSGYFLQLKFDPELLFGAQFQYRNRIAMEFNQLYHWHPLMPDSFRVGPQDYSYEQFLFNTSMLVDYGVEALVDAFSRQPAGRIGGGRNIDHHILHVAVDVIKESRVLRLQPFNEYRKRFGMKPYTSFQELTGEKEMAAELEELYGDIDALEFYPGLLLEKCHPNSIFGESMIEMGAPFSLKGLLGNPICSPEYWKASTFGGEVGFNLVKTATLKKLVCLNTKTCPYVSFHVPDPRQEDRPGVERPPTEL

COX-2 = target: T2, COX-2 (Ovis aries, UniProt P79208); experiment: COX (ovine) inhibitor screening assay kit, PGF2α produced by SnCl2 reduction of COX-derived PGH2, read at […] nm; format: biochemical
T2 construct: gene PTGS2
T2 sequence (P79208 17-603): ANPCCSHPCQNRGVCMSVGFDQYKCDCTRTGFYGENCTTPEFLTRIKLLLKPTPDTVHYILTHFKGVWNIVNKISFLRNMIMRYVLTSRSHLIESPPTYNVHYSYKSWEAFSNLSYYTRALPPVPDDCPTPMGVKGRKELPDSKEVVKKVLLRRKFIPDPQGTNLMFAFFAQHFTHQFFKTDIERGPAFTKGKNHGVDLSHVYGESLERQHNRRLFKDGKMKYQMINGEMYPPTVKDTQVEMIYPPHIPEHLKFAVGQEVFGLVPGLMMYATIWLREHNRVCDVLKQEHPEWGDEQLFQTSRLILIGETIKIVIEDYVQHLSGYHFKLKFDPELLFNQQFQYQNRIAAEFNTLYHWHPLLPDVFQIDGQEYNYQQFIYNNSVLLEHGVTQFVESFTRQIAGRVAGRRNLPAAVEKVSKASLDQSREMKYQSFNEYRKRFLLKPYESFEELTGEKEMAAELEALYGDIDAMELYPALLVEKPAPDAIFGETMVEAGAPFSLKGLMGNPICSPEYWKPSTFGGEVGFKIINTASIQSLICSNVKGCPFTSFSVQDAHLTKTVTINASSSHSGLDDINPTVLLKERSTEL

C=C(C)[C@@H]1CC[C@]2(CO)CC[C@]3(C)[C@H](CC[C@@H]4[C@@]5(C)CC[C@H](O)C(C)(C)[C@@H]5CC[C@]43C)[C@@H]12 [AN-10]
IC50 (COX-1): > 10 µM
IC50 (COX-2): < 1 µM
